Source: ChEMBL document CHEMBL5625200 (Eur J Med Chem, 2023)
The source made the active and inactive calls. The calls are words filed in the database; no cut-off is given here.

Columns and labels:
[1] = test system: Rattus norvegicus; assay: Antihypertensive activity against MCT-induced Wistar albino rat PAH model assessed as decreased right ventricular hypertrophy at 300 mg/kg, sc administered for 21 days (reference value: 0.42 +/- 0.020 […]); type: functional; conditions: time 21 day
[2] = test system: Rattus norvegicus; assay: Antihypertensive activity against MCT-induced Wistar albino rat PAH model assessed as decreased right ventricular hypertrophy at 150 mg/kg, sc administered for 21 days (reference value: 0.42 +/- 0.020 […]); type: functional; conditions: time 21 day
[3] = test system: Rattus norvegicus; assay: Antihypertensive activity against MCT-induced Wistar albino rat PAH model assessed as decreased mean pulmonary arterial pressure at 300 mg/kg, sc administered for 21 days (reference value: 19.18 +/- 0.360 mmHg); type: functional; conditions: time 21 day
[4] = test system: Rattus norvegicus; assay: Antihypertensive activity against MCT-induced Wistar albino rat PAH model assessed as decreased mean pulmonary arterial pressure at 150 mg/kg, sc administered for 21 days (reference value: 19.18 +/- 0.360 mmHg); type: functional; conditions: time 21 day
[5] = test system: Rattus norvegicus; assay: Antihypertensive activity against MCT-induced Wistar albino rat PAH model assessed as decreased right ventricular systolic pressure at 300 mg/kg, sc administered for 21 days (reference value: 55.19 +/- 0.026 mmHg); type: functional; conditions: time 21 day
[6] = test system: Rattus norvegicus; assay: Antihypertensive activity against MCT-induced Wistar albino rat PAH model assessed as decreased right ventricular systolic pressure at 150 mg/kg, sc administered for 21 days (reference value: 55.19 +/- 0.026 mmHg); type: functional; conditions: time 21 day
[7] = target: T1, Endothelin-1 receptor (Homo sapiens, UniProt P25101); assay: Antagonist activity against human ET-1 by ELISA analysis; type: functional
T1 sequence (P25101 whole entry): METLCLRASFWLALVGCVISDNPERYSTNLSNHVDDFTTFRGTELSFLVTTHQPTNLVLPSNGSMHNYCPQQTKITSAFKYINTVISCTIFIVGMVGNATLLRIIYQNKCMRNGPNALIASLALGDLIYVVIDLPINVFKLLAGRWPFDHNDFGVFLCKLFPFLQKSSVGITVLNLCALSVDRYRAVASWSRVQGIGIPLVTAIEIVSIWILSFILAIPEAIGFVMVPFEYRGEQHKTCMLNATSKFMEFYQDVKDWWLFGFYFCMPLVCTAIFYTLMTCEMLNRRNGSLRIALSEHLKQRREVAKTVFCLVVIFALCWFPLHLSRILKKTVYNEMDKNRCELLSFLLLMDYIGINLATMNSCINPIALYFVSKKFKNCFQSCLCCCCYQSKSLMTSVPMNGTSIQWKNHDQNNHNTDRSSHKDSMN

[8] = test system: Rattus norvegicus; assay: Antihypertensive activity against MCT-induced Wistar albino rat assessed as reduction of arterial wall thickening in peribronchial arteries at 150 to 300 mg/kg, sc by hematoxylin and eosin staining based microscopic analysis; type: functional, organism-based; conditions: dose 150-300 mg/kg
[9] = test system: Rattus norvegicus; assay: Antihypertensive activity against MCT-induced Wistar albino rat assessed as reduction in HIF1alpha level at 150 mg/kg, sc by ELISA analysis (reference value: 312.00 +/- 1.36 ng/ml); type: functional
[10] = test system: Rattus norvegicus; assay: Antihypertensive activity against MCT-induced Wistar albino rat assessed as reduction in HIF1alpha level at 300 mg/kg, sc by ELISA analysis (reference value: 312.00 +/- 1.36 ng/ml); type: functional
[11] = test system: Rattus norvegicus; assay: Antihypertensive activity against MCT-induced Wistar albino rat assessed as reduction in ANP level at 150 mg/kg, sc by ELISA analysis (reference value: 358.00 +/- 1.24 pg/ml); type: functional
[12] = test system: Rattus norvegicus; assay: Antihypertensive activity against MCT-induced Wistar albino rat assessed as reduction in ANP level at 300 mg/kg, sc by ELISA analysis (reference value: 358.00 +/- 1.24 pg/ml); type: functional
[13] = test system: Rattus norvegicus; assay: Antihypertensive activity against MCT-induced Wistar albino rat assessed as reduction in TNNI3 level at 150 mg/kg, sc by ELISA analysis (reference value: 3.42 +/- 0.12 pg/ml); type: functional
[14] = test system: Rattus norvegicus; assay: Antihypertensive activity against MCT-induced Wistar albino rat assessed as reduction in TNNI3 level at 300 mg/kg, sc by ELISA analysis (reference value: 3.42 +/- 0.12 pg/ml); type: functional
[15] = test system: Rattus norvegicus; assay: Antioxidant activity against MCT-induced Wistar albino rat assessed as increase in SOD level at 150 mg/kg, sc by biochemical analysis (reference value: 19.15 +/- 0.21 U/mg); type: functional
[16] = test system: Rattus norvegicus; assay: Antioxidant activity against MCT-induced Wistar albino rat assessed as increase in SOD level at 300 mg/kg, sc by biochemical analysis (reference value: 19.15 +/- 0.21 U/mg); type: functional
[17] = test system: Rattus norvegicus; assay: Antioxidant activity against MCT-induced Wistar albino rat assessed as increase in catalase level at 150 mg/kg, sc by biochemical analysis (reference value: 0.26 +/- 0.05 U/mg); type: functional
[18] = test system: Rattus norvegicus; assay: Antioxidant activity against MCT-induced Wistar albino rat assessed as increase in catalase level at 300 mg/kg, sc by biochemical analysis (reference value: 0.26 +/- 0.05 U/mg); type: functional
[19] = test system: Rattus norvegicus; assay: Antioxidant activity against MCT-induced Wistar albino rat assessed as increase in GSH level at 150 mg/kg, sc by biochemical analysis (reference value: 12.21 +/- 0.34 U/mg); type: functional
[20] = test system: Rattus norvegicus; assay: Antioxidant activity against MCT-induced Wistar albino rat assessed as increase in GSH level at 300 mg/kg, sc by biochemical analysis (reference value: 12.21 +/- 0.34 U/mg); type: functional
[21] = test system: Rattus norvegicus; assay: Antioxidant activity against MCT-induced Wistar albino rat assessed as reduction in TBARS level at 150 mg/kg, sc by biochemical analysis (reference value: 123.03 +/- 0.47 micromol); type: functional
[22] = test system: Rattus norvegicus; assay: Antioxidant activity against MCT-induced Wistar albino rat assessed as reduction in TBARS level at 300 mg/kg, sc by biochemical analysis (reference value: 123.03 +/- 0.47 micromol); type: functional
[23] = test system: Rattus norvegicus; assay: Antihypertensive activity against MCT-induced Wistar albino rat assessed as decrease in COX-2 expression by measuring fold change at 300 mg/kg, sc by quantitative RT-PCR analysis (reference value: 32.22); type: functional
[24] = test system: Rattus norvegicus; assay: Antihypertensive activity against MCT-induced Wistar albino rat assessed as decrease in ET-alpha expression by measuring fold change at 300 mg/kg, sc by quantitative RT-PCR analysis (reference value: 32.14); type: functional
[25] = test system: Rattus norvegicus; assay: Antihypertensive activity against MCT-induced Wistar albino rat assessed as decrease in ET-beta expression by measuring fold change at 300 mg/kg, sc by quantitative RT-PCR analysis (reference value: 15.17); type: functional
[26] = test system: Rattus norvegicus; assay: Antihypertensive activity against MCT-induced Wistar albino rat assessed as decrease in mPGES-1 expression by measuring fold change at 300 mg/kg, sc by quantitative RT-PCR analysis (reference value: 10.99); type: functional
[27] = test system: Rattus norvegicus; assay: Antihypertensive activity against MCT-induced Wistar albino rat assessed as increase in eNOS expression by measuring fold change at 300 mg/kg, sc by quantitative RT-PCR analysis (reference value: 0.002); type: functional
[28] = test system: Rattus norvegicus; assay: Antihypertensive activity against MCT-induced Wistar albino rat assessed as increase in SGC expression by measuring fold change at 300 mg/kg, sc by quantitative RT-PCR analysis (reference value: 0.01); type: functional
[29] = test system: Rattus norvegicus; assay: Antihypertensive activity against MCT-induced Wistar albino rat assessed as decrease in lung COX-2 expression at 300 mg/kg, sc by Western blotting analysis; type: functional, organism-based
[30] = test system: Rattus norvegicus; assay: Antihypertensive activity against MCT-induced Wistar albino rat assessed as decrease in lung mPGES-1 expression at 300 mg/kg, sc by Western blotting analysis; type: functional, organism-based
[31] = test system: Rattus norvegicus; assay: Antihypertensive activity against MCT-induced Wistar albino rat assessed as increase in lung SGC expression at 300 mg/kg, sc by Western blotting analysis; type: functional, organism-based
[32] = test system: Rattus norvegicus; assay: Antihypertensive activity against MCT-induced Wistar albino rat assessed as increase in lung eNOS expression at 300 mg/kg, sc by Western blotting analysis; type: functional, organism-based

Compound COc1ccccc1Oc1c(NS(C)(=O)=O)nc(-c2ncccn2)nc1OCCC(C)C has an Activity [1] of 0.23, an Activity [2] of 0.26 and an Activity [3] of 9.02 mmHg. The Activity [4] was 11.18 mmHg, the Activity [5] was 21.11 mmHg and the Activity [6] was 26.82 mmHg. The IC50 [7] was 0.18 nM, the Activity [8] was “Active” and the Activity [9] was 139 ng/mL. For the same compound, the Activity [10] was 121 ng/mL, the Activity [11] was 241.2 pg/mL and the Activity [12] was 224 pg/mL. It also gave an Activity [13] of 1.94 pg/mL, an Activity [14] of 1.84 pg/mL and an Activity [15] of 38.21 U/mg. The Activity [16] was 46.01 U/mg, the Activity [17] was 1.09 U/mg and the Activity [18] was 1.21 U/mg. The Activity [19] was 21.92 U/mg, the Activity [20] was 28.09 U/mg and the Activity [21] was 78.12 µmol. For the same compound, the Activity [22] was 69.82 µmol, the “fold change (FC)” value [23] was 1.81 and the “fold change (FC)” value [24] was 0.44. For the same compound, the “fold change (FC)” value [25] was 0.34, the “fold change (FC)” value [26] was 0.81 and the “fold change (FC)” value [27] was 0.63. The “fold change (FC)” value [28] was 0.49, the Activity [29] was “Active” and the Activity [30] was “Active”. For the same compound, the Activity [31] was “Active” and the Activity [32] was “Active”.
